From ChEMBL document CHEMBL5620349, “Recent advance of small-molecule drugs for clinical treatment of multiple myeloma” (Eur J Med Chem, 2023)
Where a name gives a salt, the structure may show the parent alone.

How the values were obtained:
[1] = target: Nuclear factor NF-kappa-B complex (Homo sapiens, UniProt P19838+Q00653+Q04206); experiment: Inhibition of NF-kappaB (unknown origin); assay type: protein-complex assay
[2] = target: Beta-2 adrenergic receptor (Homo sapiens, UniProt P07550); experiment: Agonist activity at Adrenergic beta2 receptor (unknown origin); assay type: functional
Sequence of Beta-2 adrenergic receptor (P07550 whole entry): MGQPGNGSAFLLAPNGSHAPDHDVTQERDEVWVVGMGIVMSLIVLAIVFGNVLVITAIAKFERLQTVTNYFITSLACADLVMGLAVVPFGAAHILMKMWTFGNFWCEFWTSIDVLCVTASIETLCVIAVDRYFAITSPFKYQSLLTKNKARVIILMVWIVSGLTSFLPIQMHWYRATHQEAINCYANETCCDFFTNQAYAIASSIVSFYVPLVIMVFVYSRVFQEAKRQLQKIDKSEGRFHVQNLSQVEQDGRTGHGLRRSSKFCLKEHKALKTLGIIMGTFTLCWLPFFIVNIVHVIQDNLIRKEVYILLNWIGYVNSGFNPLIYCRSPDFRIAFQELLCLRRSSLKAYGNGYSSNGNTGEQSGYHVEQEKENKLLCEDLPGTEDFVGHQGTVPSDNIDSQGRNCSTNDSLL

[3] = Inhibition of 20s proteasome beta2 (unknown origin) mediated […] activity; set-up: species or system Homo sapiens
[4] = Inhibition of 20s proteasome beta1 (unknown origin) mediated […] activity; set-up: species or system Homo sapiens
[5] = system: Human immunodeficiency virus 2; experiment: Antiviral activity against HIV-2
Protein smoothened [6] = target: Protein smoothened (Homo sapiens, UniProt Q99835); experiment: Antagonist activity at human SMO
Sequence of Protein smoothened (Homo sapiens, UniProt Q99835) (Q99835 whole entry): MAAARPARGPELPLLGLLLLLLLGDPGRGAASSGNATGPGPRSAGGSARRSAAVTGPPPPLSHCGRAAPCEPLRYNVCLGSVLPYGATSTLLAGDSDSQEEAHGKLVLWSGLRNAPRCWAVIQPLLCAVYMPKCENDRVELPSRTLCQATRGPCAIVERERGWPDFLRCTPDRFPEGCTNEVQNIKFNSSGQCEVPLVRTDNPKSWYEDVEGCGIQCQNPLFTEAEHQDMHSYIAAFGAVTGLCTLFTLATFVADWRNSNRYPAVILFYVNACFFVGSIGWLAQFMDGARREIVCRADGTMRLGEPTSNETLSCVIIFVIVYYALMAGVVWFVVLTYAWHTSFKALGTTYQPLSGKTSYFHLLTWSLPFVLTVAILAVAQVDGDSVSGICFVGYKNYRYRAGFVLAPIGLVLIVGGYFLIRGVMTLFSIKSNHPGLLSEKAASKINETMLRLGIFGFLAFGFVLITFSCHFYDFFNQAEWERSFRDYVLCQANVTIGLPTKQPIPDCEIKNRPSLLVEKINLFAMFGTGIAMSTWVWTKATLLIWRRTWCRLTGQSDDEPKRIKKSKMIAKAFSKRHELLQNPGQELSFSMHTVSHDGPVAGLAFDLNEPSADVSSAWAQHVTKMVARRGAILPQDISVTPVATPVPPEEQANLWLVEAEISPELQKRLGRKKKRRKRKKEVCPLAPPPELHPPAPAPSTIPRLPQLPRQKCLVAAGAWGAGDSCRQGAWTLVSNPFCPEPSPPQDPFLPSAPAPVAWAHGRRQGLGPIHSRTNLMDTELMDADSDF

Protein smoothened [7] = target: Protein smoothened (Mus musculus, UniProt P56726); experiment: Antagonist activity at mouse SMO
Sequence of Protein smoothened (Mus musculus, UniProt P56726) (P56726 whole entry): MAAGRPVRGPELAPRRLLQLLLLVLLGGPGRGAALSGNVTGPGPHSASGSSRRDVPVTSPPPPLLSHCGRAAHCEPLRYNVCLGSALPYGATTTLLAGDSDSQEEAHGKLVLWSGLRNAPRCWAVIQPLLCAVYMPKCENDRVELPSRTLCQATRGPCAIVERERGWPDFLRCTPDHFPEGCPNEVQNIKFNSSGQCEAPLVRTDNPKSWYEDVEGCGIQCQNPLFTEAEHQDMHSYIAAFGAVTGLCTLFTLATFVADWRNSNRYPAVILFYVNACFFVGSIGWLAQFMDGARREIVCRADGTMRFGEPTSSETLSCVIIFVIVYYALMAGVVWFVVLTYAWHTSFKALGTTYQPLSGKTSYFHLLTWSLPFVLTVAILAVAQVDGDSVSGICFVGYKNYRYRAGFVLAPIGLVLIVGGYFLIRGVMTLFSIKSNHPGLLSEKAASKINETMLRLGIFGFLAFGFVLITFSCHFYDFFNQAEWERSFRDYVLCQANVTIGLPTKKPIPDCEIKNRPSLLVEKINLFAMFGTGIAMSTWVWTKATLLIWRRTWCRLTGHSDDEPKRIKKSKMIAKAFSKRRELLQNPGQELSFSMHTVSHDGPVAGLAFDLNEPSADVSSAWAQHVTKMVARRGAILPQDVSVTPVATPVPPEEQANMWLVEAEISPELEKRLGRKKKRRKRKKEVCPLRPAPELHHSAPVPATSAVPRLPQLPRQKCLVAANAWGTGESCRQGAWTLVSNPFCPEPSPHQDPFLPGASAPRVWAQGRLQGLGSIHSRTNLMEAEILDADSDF

Sequence of Nuclear factor NF-kappa-B complex (P19838 1-433 limits assumed): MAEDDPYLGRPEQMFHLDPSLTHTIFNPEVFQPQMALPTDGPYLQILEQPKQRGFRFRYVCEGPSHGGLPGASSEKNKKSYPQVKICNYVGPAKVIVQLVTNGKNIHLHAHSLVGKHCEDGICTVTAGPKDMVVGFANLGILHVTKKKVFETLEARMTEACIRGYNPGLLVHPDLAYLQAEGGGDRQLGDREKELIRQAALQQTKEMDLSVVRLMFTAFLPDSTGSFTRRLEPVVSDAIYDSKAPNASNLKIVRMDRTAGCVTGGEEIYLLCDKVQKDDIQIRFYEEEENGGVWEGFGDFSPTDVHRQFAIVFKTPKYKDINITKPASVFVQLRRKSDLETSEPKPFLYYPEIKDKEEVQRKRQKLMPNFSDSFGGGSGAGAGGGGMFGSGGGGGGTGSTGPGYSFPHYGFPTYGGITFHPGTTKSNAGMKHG
Sequence of Nuclear factor NF-kappa-B complex (Q00653 1-454 limits assumed): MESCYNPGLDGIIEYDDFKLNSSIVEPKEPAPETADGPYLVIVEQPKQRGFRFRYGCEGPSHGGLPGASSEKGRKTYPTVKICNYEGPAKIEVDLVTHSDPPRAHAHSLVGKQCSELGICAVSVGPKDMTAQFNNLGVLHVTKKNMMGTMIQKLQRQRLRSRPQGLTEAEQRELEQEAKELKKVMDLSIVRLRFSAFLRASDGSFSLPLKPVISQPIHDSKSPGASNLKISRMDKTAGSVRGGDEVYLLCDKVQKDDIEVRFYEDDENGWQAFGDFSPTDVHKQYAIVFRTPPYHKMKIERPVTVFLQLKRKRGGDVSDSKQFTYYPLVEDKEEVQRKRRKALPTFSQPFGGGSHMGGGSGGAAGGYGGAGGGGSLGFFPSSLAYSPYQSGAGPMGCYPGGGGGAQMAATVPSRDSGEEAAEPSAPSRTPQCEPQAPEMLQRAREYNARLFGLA
Sequence of Nuclear factor NF-kappa-B complex (Q04206 whole entry): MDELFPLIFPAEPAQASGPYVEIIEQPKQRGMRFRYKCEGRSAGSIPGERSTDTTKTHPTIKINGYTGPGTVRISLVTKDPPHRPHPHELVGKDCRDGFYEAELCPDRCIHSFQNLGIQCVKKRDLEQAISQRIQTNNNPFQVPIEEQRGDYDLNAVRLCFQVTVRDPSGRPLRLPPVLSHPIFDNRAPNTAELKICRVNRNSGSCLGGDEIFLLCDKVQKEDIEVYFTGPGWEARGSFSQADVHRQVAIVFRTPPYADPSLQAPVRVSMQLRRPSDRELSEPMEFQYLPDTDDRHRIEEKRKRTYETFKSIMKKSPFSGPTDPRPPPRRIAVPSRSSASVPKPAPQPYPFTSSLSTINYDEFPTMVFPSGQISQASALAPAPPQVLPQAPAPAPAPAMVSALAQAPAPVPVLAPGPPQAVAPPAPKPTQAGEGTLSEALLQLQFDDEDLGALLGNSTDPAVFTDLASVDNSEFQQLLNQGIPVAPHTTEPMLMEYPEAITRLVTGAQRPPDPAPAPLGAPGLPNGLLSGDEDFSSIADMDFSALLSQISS

Q: Which IC50 [1] does the source give for `C[C@@H]1C[C@H]2[C@@H]3CCC4=CC(=O)C=C[C@]4(C)[C@@]3(F)[C@@H](O)C[C@]2(C)[C@@]1(O)C(=O)CO` [DEXAMETHASONE] here?
A: 0.5 nM

Q: And the EC50 [2]?
A: 2.2 nM

Q: With `CC(C)C[C@H](NC(=O)CNC(=O)c1cc(Cl)ccc1Cl)B1OC(=O)C(CC(=O)O)(CC(=O)O)O1` [IXAZOMIB CITRATE] as the compound, how does the IC50 [3] read?
A: 3500 nM

Q: What about the IC50 [4] of the same compound?
A: 31 nM

Q: With `c1cc(CN2CCCNCCNCCCNCC2)ccc1CN1CCCNCCNCCCNCC1` [PLERIXAFOR] as the compound, how does the EC50 [5] read?
A: 1 nM

Q: Which IC50 (Protein smoothened [6]) does the source give for `Cc1c(C(=O)Nc2ccc(N3C[C@@H](C)O[C@@H](C)C3)nc2)cccc1-c1ccc(OC(F)(F)F)cc1` [SONIDEGIB PHOSPHATE] here?
A: 2.5 nM

Q: What about the IC50 (Protein smoothened [7]) of the same compound?
A: 1.3 nM
